Assays:
[1] = Test 4: Inhibition of cellular release of amyloid peptide 1-40; assay type: cell-based, Chinese hamster; conditions: Cricetulus griseus; CHO cells transfected with APP gene; 24 hours with test compound; amyloid peptide 1-40 in supernatant by sandwich ELISA
Source text: Test 4: Inhibition of Cellular Release of Amyloid Peptide 1-40

Row | Structure (SMILES) | melting point [°C] | IC50 [1] [µM]
1 | CC(C)c1cccc(CN[C@H]2CS(=O)(=O)C[C@@H](Cc3ccc(Nc4ccncn4)cc3)[C@@H]2O)c1 [Example 44, (3R,4S,5S)-3-(3-Isopropyl-benzylamino)-1,1-dioxo-5-[4-(pyrimidin-4-ylamino)-benzyl]-hexahydro-1lambda*6*-thiopyran-4-ol] | 136 to 139 | –
2 | COc1ccc(C[C@@H]2CS(=O)(=O)C[C@H](NCc3cccc(C(C)C)c3)[C@H]2O)cc1Br.Cl | 173 to 175 | –
3 | CC(C)c1cccc(CN[C@H]2CS(=O)(=O)C[C@@H](Cc3ccccc3)[C@@H]2O)c1.Cl (hydrate or solvate) | 239 to 242 | –
4 | CO[C@@H](C)COCc1cccc(C[C@@H]2CS(=O)(=O)C[C@H](NCc3cccc(C(C)C)c3)[C@H]2O)c1 [Example 26, (3R,4S,5S)-3-(3-Isopropyl-benzylamino)-5-[3-((S)-2-methoxy-propoxy-methyl)-benzyl]-1,1-dioxo-hexahydro-1lambda*6*-thiopyran-4-ol] | – | 4.7
